Marks after values point to notes of the source that are not given here.
Test system: oxazolone-induced ear swelling
Assay: Oxazolone-induced ear swelling assay (model of allergic contact dermatitis)
Format: in vivo, BALB/c mice
Conditions: TOP
Protocol: Groups of 5 BALB/c male mice weighing 22±2 g were used. The animals were sensitized by application of oxazolone (100 μL, 1.5% in acetone) to their preshaved abdominal surface. Seven days later, test substances (20 mg/ear) and vehicle (20 μL/ear) were applied topically to the anterior and posterior surfaces of the right ear 30 min before and 15 min after oxazolone (1%, 20 μL/ear) challenge. Ear swelling was measured with a Dyer model micrometer gauge at 24 hours after oxazolone challenge as an index of inflammation. Ear edema was calculated by subtracting the thickness of the left ear (normal control) from the right ear (treated ear). Percent inhibition was calculated according to the formula: (Ic−It)/Ic×100, where Ic and It refers to increase of ear thickness (mm) in control and treated mice, respectively. One-way ANOVA and Dunnett's test were used to determine statistical significance between vehicle control and treated groups. Significance is set at P<0.05.
Test articles (0.2% and 2% Nitricil™ NVN1 Ointment) described in Example 6 were evaluated for possible anti-inflammatory activity in the oxazolone-induced ear swelling assay in BALB/c mice, a model of allergic contact dermatitis. Test substances and vehicles were each administered topically (TOP) at 30 minutes before and 15 minutes after challenge with the second application of oxazolone.
The test system used was a 7-day oxazolone-induced ear swelling assay. Oxazolone-induced ear swelling is useful as a model of inflammation. […] Ear swelling was measured with a Dyer model micrometer gauge at 24 hours after oxazolone challenge as an index of inflammation. Ear edema was calculated by subtracting the thickness of the left ear (normal control) from the right ear (treated ear) (Table 18). […]
Percent inhibition was calculated according to the formula: (Ic−It)/Ic×100, where Ic and It refer to increase of ear thickness (mm) in control and treated mice, respectively. […]

SMILES: C[C@@H]1C[C@H]2[C@@H]3CCC4=CC(=O)C=C[C@]4(C)[C@@]3(F)[C@@H](O)C[C@]2(C)[C@@]1(O)C(=O)CO [Dexamethasone]
- Ear Swelling % Inhibition (vs. Vehicle A, acetone/ethanol 1/1) (Example 7 study, ointments 20 mg/ear × 2, dexamethasone 0.3 mg/ear × 2, 24 hours after challenge): 85* %
- % inhibition of oxazolone-induced ear swelling vs acetone/ethanol vehicle (Example 9 study, ointments 20 mg/ear × 2, dexamethasone 0.1 mg/ear × 2): 86%
- Net Swelling on Right Ear (Mean ± SEM) (Example 9 study, ointments 20 mg/ear × 2, dexamethasone 0.1 mg/ear × 2, 24 hours after challenge): 3.2 ± 0.4 × 0.01 mm
